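96-well plates; 48 h exposure; 5 concentrations. Endpoints by linear interpolation between flanking doses. Not reached: highest tested concentration assigned. GI50 = concentration required for 50% inhibition of growth.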 Activity calls are given as the source filed them. No stated cut-off is given here; in the data, active = GI50 up to about 1.1 µM and inactive = higher.
What was measured:
Test in all cases: inhibition of tumour cell growth, NCI panel, 48 h
A498 = tested on: A498
MDA-N = tested on: MDA-N
T47D = tested on: T47D
UACC-62 = tested on: UACC-62
SW-620 = tested on: SW-620
SF-268 = tested on: SF-268
SK-OV-3 = tested on: SK-OV-3
UO-31 = tested on: UO-31
COLO 205 = tested on: COLO 205
OVCAR-8 = tested on: OVCAR-8
U-251 = tested on: U-251
HOP-92 = tested on: HOP-92
SK-MEL-28 = tested on: SK-MEL-28
IGROV-1 = tested on: IGROV-1
OVCAR-3 = tested on: OVCAR-3
K562 = tested on: K562
BT-549 = tested on: BT-549
MCF7 = tested on: MCF7
KM12 = tested on: KM12
NCI-H226 = tested on: NCI-H226
OVCAR-4 = tested on: OVCAR-4
CCRF-CEM = tested on: CCRF-CEM
MOLT-4 = tested on: MOLT-4
MDA-MB-231 = tested on: MDA-MB-231
HL-60 = tested on: HL-60
Hs-578T = tested on: Hs-578T
EKVX = tested on: EKVX
SF-539 = tested on: SF-539
SK-MEL-2 = tested on: SK-MEL-2
RXF 393 = tested on: RXF 393
HOP-62 = tested on: HOP-62
NCI-H23 = tested on: NCI-H23
HCT-15 = tested on: HCT-15
786-0 = tested on: 786-0
TK-10 = tested on: TK-10
DU-145 = tested on: DU-145
NCI/ADR-RES = tested on: NCI/ADR-RES
MDA-MB-435 = tested on: MDA-MB-435
Malme-3M = tested on: Malme-3M
SF-295 = tested on: SF-295
SNB-19 = tested on: SNB-19
HCC 2998 = tested on: HCC 2998
UACC-257 = tested on: UACC-257
SN12C = tested on: SN12C
HCT-116 = tested on: HCT-116
RPMI-8226 = tested on: RPMI-8226
SK-MEL-5 = tested on: SK-MEL-5
HT-29 = tested on: HT-29
NCI-H522 = tested on: NCI-H522
SR = tested on: SR
M14 = tested on: M14
A549 = tested on: A549
OVCAR-5 = tested on: OVCAR-5
ACHN = tested on: ACHN
LOX IMVI = tested on: LOX IMVI
CAKI-1 = tested on: CAKI-1
NCI-H460 = tested on: NCI-H460
PC-3 = tested on: PC-3
SNB-75 = tested on: SNB-75

O=[N+]([O-])c1ccc(Cl)c(/C=N/C23CC4CC(CC(C4)C2)C3)c1
GI50 (A498): > 10 µM (inactive)
GI50 (MDA-N): > 8.13 µM (inactive)
GI50 (T47D): > 10 µM (inactive)
GI50 (UACC-62): > 10 µM (inactive)
GI50 (SW-620): > 10 µM (inactive)
GI50 (SF-268): > 10 µM (inactive)
GI50 (SK-OV-3): > 10 µM (inactive)
GI50 (UO-31): > 10 µM (inactive)
GI50 (COLO 205): > 10 µM (inactive)
GI50 (OVCAR-8): 4 µM (inactive)
GI50 (U-251): > 7.48 µM (inactive)
GI50 (HOP-92): > 10 µM (inactive)
GI50 (SK-MEL-28): > 10 µM (inactive)
GI50 (IGROV-1): > 10 µM (inactive)
GI50 (OVCAR-3): > 9.48 µM (inactive)
GI50 (K562): 2.89 µM (inactive)
GI50 (BT-549): > 10 µM (inactive)
GI50 (MCF7): 3.08 µM (inactive)
GI50 (KM12): > 9.48 µM (inactive)
GI50 (NCI-H226): > 10 µM (inactive)
GI50 (OVCAR-4): > 10 µM (inactive)
GI50 (CCRF-CEM): 3.8 µM (inactive)
GI50 (MOLT-4): 5.18 µM (inactive)
GI50 (MDA-MB-231): > 10 µM (inactive)
GI50 (HL-60): 2.05 µM (inactive)
GI50 (Hs-578T): > 10 µM (inactive)
GI50 (EKVX): > 10 µM (inactive)
GI50 (SF-539): 5.33 µM (inactive)
GI50 (SK-MEL-2): > 10 µM (inactive)
GI50 (RXF 393): > 10 µM (inactive)
GI50 (HOP-62): > 10 µM (inactive)
GI50 (NCI-H23): > 10 µM (inactive)
GI50 (HCT-15): > 6.46 µM
GI50 (786-0): > 7.66 µM (inactive)
GI50 (TK-10): > 10 µM (inactive)
GI50 (DU-145): > 10 µM (inactive)
GI50 (NCI/ADR-RES): > 9.1 µM (inactive)
GI50 (MDA-MB-435): > 6.34 µM (inactive)
GI50 (Malme-3M): > 10 µM (inactive)
GI50 (SF-295): > 10 µM (inactive)
GI50 (SNB-19): > 10 µM (inactive)
GI50 (HCC 2998): > 10 µM (inactive)
GI50 (UACC-257): > 10 µM (inactive)
GI50 (SN12C): > 10 µM (inactive)
GI50 (HCT-116): 1.2 µM (inactive)
GI50 (RPMI-8226): > 6.93 µM (inactive)
GI50 (SK-MEL-5): 3.5 µM (inactive)
GI50 (HT-29): > 10 µM (inactive)
GI50 (NCI-H522): > 10 µM (inactive)
GI50 (SR): 4.1 µM (inactive)
GI50 (M14): > 6.22 µM (inactive)
GI50 (A549): > 10 µM (inactive)
GI50 (OVCAR-5): > 10 µM (inactive)
GI50 (ACHN): > 10 µM (inactive)
GI50 (LOX IMVI): > 9.12 µM (inactive)
GI50 (CAKI-1): > 10 µM (inactive)
GI50 (NCI-H460): > 10 µM (inactive)
GI50 (PC-3): > 10 µM (inactive)
GI50 (SNB-75): > 10 µM (inactive)

From ChEMBL document CHEMBL1201862, “PubChem BioAssay data set” (2004)
